27 molecules from US10829473B2, “Modulators of the cystic fibrosis transmembrane conductance regulator protein and methods of use” (AbbVie Overseas S.Á.R.L., priority 2017, dated 2020) can be followed below.

Read-outs that look alike come from different tables or passages of the source.

The assay concerns the target T1, F508delCFTR (Homo sapiens, UniProt P13569, DEL508-508).
T1 construct: expressed in transfected cells; host or cells: CFBE41o- human lung derived epithelial cells (CFBE41o-F508delCFTR-HRP), doxycycline-inducible
The assay can be described thus: Cell Surface Expression-Horse Radish Peroxidase (CSE-HRP) Assay.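 On EC50 (with co-corrector): co-corrector chromenyl benzoic acid corrector at 2 or 3 µM.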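 On Maximum % activity (without co-corrector): % of on-plate positive control chromenyl benzoic acid corrector at 2 or 3 µM.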 Type of assay: cell-based. As to conditions: for Emax: read-out: Maximum % activity (without co-corrector). An outline of the steps: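 Corrector compounds were given as 8-point 3-fold series from 20 or 30 μM, with or without a 2 μM co-corrector, for 18-24 h at 33 °C. Surface HRP was read by luminol luminescence as % of positive control; variable-Hill-slope sigmoidal fitting gave EC50 from triplicate plates.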

[1] abbreviates: test compound alone, without co-corrector, read-out: EC50 (without co-corrector).
Setting [2] is: with co-corrector, maximum at any tested concentration.
[3] abbreviates: with co-corrector, read-out: EC50 (with co-corrector).
Setting [4] is: without co-corrector, maximum at any tested concentration.

T1 sequence (P13569 with tags, fused parts or gaps DEL508-508): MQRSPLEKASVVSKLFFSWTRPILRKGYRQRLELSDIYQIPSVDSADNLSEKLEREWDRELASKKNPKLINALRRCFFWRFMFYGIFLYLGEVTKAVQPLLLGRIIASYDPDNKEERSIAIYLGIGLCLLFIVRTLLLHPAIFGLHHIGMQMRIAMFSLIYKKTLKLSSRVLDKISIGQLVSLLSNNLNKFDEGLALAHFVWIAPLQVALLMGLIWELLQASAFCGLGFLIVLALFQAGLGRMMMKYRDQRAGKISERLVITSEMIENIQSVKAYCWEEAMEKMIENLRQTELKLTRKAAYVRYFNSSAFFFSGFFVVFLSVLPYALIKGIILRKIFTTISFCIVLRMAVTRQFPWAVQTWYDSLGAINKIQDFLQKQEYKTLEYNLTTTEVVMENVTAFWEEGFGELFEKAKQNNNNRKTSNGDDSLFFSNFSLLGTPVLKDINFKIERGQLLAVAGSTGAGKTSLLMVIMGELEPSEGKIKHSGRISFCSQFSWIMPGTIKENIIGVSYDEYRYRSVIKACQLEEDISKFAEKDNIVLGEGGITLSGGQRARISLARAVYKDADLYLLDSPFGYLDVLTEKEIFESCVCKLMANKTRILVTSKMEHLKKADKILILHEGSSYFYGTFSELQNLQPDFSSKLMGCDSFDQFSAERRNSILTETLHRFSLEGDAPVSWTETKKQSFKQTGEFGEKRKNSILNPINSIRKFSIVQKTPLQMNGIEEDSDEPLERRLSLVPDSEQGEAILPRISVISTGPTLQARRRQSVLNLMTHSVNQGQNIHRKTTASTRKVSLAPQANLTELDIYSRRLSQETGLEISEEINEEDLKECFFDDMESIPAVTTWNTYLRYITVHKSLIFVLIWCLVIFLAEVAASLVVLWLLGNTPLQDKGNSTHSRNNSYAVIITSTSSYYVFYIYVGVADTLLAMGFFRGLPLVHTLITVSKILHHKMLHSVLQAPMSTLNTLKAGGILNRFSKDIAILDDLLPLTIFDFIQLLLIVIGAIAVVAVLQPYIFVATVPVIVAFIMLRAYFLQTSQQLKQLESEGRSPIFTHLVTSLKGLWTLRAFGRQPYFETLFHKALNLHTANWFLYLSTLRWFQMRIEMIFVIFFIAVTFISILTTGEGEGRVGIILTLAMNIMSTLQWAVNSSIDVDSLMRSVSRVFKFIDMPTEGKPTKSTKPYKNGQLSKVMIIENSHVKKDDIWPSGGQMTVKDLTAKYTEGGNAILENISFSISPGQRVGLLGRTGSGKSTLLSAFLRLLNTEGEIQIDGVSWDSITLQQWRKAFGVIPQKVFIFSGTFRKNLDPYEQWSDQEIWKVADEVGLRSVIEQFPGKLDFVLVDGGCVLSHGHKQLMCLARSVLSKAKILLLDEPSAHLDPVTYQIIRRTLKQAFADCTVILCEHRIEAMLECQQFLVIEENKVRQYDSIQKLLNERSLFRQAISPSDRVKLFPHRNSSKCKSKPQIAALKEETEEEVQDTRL

One may read the EC50 as the midpoint of the concentration-response curve. Turning to `CCC(C)c1ccc(OC)c(C2(C(=O)NS(=O)(=O)c3cccc4c3CCCN4)CCC2)c1` (stereo not drawn) [II-22], the EC50 is, setting by setting: under setting [1], 3 to 10 µM; under setting [3], below 3 µM. Further, the “Maximum % activity (with co-corrector)” value under setting [2] is given as “+++ (≥350)”. Besides, under setting [4], the Emax was above 150%.

For `COc1ccc(OC2CCOC2)cc1C1(C(=O)NS(=O)(=O)c2cccc3ncccc23)CC1` (stereo not drawn) [II-23], the EC50 was in the range of 3 to 10 µM under setting [1] and 3 to 10 µM under setting [3]. Further, the “Maximum % activity (with co-corrector)” value under setting [2] is “+++ (≥350)”. In addition, the Emax under setting [4] lay in the range of 50 to 150%.

Turning to `O=C(NS(=O)(=O)c1cccc2ncccc12)C1(c2cc(OC(F)(F)F)ccc2Cl)CC1` [II-24], the EC50 is, setting by setting: under setting [1], below 3 µM; under setting [3], below 3 µM. In addition, the “Maximum % activity (with co-corrector)” value under setting [2] is listed as “+++ (≥350)”. Moreover, the Emax under setting [4] was above 150%.

In the case of `O=C(NS(=O)(=O)c1cccc2c1CCCN2)C1(c2cc(OC(F)(F)F)ccc2Cl)CC1` [II-25], the EC50 is, setting by setting: under setting [1], 3 to 10 µM; under setting [3], below 3 µM. The “Maximum % activity (with co-corrector)” value under setting [2] is “+++ (≥350)”. Besides, the Emax under setting [4] was above 150%.

On to `COc1ccc(C(C)C)cc1C1(C(=O)NS(=O)(=O)c2cccc3c2CCCN3)CC1` [II-26], for which the EC50 under setting [1] was below 3 µM and the EC50 under setting [3] is below 3 µM. Moreover, the “Maximum % activity (with co-corrector)” value under setting [2] was “+++ (≥350)”. For the same molecule, the Emax under setting [4] was above 150%.

For `COc1cc(F)c(C(C)C)cc1C1(C(=O)NS(=O)(=O)c2cccc3c2CCCN3)CC1` [II-27], the EC50 by setting is: under setting [1], below 3 µM; under setting [3], below 3 µM. Also, the “Maximum % activity (with co-corrector)” value under setting [2] is on record as “+++ (≥350)”. For the same molecule, the Emax under setting [4] is above 150%.

Take `COc1ccc(C(F)(F)F)cc1C1(C(=O)NS(=O)(=O)c2cccc3c2CCCN3)CC1` [II-28]: the EC50 runs as follows: under setting [1], below 3 µM; under setting [3], below 3 µM. Under setting [2], the “Maximum % activity (with co-corrector)” value is recorded as “+++ (≥350)”. Further, the Emax under setting [4] is above 150%.

In the case of `COC(=O)C1(c2ccc(OC)c(C3(C(=O)NS(=O)(=O)c4cccc5ncccc45)CC3)c2)CC1` [II-30], the EC50 reads like this: under setting [1], 3 to 10 µM; under setting [3], below 3 µM. Moreover, under setting [2], the “Maximum % activity (with co-corrector)” value is “+++ (≥350)”. The Emax under setting [4] is above 150%.

As for `COC(=O)c1ccc(OC)c(C2(C(=O)NS(=O)(=O)c3cccc4ncccc34)CC2)c1` [II-31], the Emax is above 150%. The EC50 under setting [1] lay in the range of 3 to 10 µM. For the same molecule, the “Maximum % activity (with co-corrector)” value under setting [2] is listed as “+++ (≥350)”. The EC50 under setting [3] is below 3 µM.

For the molecule `COC(=O)c1ccc(OC)c(C2(C(=O)NS(=O)(=O)c3cccc4ccccc34)CC2)c1` [II-32], the Emax is above 150%. In addition, under setting [1], the EC50 is 3 to 10 µM. In addition, the “Maximum % activity (with co-corrector)” value under setting [2] is “+++ (≥350)”. Further, the EC50 under setting [3] is below 3 µM.

On to `COc1ncc(C2CCC2)c(C)c1C1(C(=O)NS(=O)(=O)c2cccc3nc(C)ccc23)CC1` [II-33], for which the EC50 is, setting by setting: under setting [1], 3 to 10 µM; under setting [3], below 3 µM. The “Maximum % activity (with co-corrector)” value under setting [2] was “+++ (≥350)”. Also, the Emax under setting [4] is above 150%.

Take `COc1cccc(C)c1C1(C(=O)NS(=O)(=O)c2cccc3ncccc23)CC1` [II-35]: the EC50 was 3 to 10 µM under setting [1] and below 3 µM under setting [3]. For the same molecule, the “Maximum % activity (with co-corrector)” value under setting [2] is on record as “+++ (≥350)”. The Emax under setting [4] is above 150%.

For the molecule `COc1ccc(C)c(C)c1C1(C(=O)NS(=O)(=O)c2cccc3c2CCCN3)CC1` [II-36], the EC50 was below 3 µM under setting [1] and below 3 µM under setting [3]. Moreover, the “Maximum % activity (with co-corrector)” value under setting [2] is given as “+++ (≥350)”. Besides, the Emax under setting [4] is above 150%.

For the molecule `COc1ccc(C2CC2)c(C)c1C1(C(=O)NS(=O)(=O)c2cccc3c2CCCN3)CC1` [II-37], the EC50 under setting [1] was below 3 µM and the EC50 under setting [3] was below 3 µM. Further, under setting [2], the “Maximum % activity (with co-corrector)” value is “+++ (≥350)”. The Emax under setting [4] is above 150%.

As to `COc1ncc(C2CCC2)c(C)c1C1(C(=O)NS(=O)(=O)c2cccc3c2CCCN3)CC1` [II-38], the EC50 under setting [1] was 3 to 10 µM and the EC50 under setting [3] is below 3 µM. Besides, under setting [2], the “Maximum % activity (with co-corrector)” value is “+++ (≥350)”. Further, the Emax under setting [4] is above 150%.

`COc1ccc(C)c(OC)c1C1(C(=O)NS(=O)(=O)c2cccc3ccc(C)nc23)CC1` [II-39]: the EC50 by setting is: under setting [1], below 3 µM; under setting [3], below 3 µM. The “Maximum % activity (with co-corrector)” value under setting [2] is on record as “+++ (≥350)”. The Emax under setting [4] was 50 to 150%.

With `COc1ccc(C2CCC2)cc1C1(C(=O)NS(=O)(=O)c2cccc3c2CCN3C)CC1` [II-40], the EC50 runs as follows: under setting [1], 3 to 10 µM; under setting [3], 3 to 10 µM. Moreover, the “Maximum % activity (with co-corrector)” value under setting [2] is reported as “+++ (≥350)”. In addition, under setting [4], the Emax was above 150%.

On to `COc1ncc(C2CCC2)c(C)c1C1(C(=O)NS(=O)(=O)c2cccc3c2ccn3C)CC1` [II-41], for which the EC50 runs as follows: under setting [1], 3 to 10 µM; under setting [3], below 3 µM. Under setting [2], the “Maximum % activity (with co-corrector)” value is reported as “+++ (≥350)”. In addition, the Emax under setting [4] fell in the range of 50 to 150%.

With `COc1ncc(C2CCC2)c(C)c1C1(C(=O)NS(=O)(=O)c2cccc3ccn(C)c23)CC1` [II-42], the EC50 is 3 to 10 µM under setting [1] and below 3 µM under setting [3]. Moreover, the “Maximum % activity (with co-corrector)” value under setting [2] was “+++ (≥350)”. For the same molecule, the Emax under setting [4] lay in the range of 50 to 150%.

As for `COc1ncc(C2CCC2)c(C)c1C1(C(=O)NS(=O)(=O)c2cccc3cnn(C)c23)CC1` [II-43], the EC50 is below 3 µM under setting [1] and below 3 µM under setting [3]. Moreover, the “Maximum % activity (with co-corrector)” value under setting [2] is on record as “+++ (≥350)”. For the same molecule, the Emax under setting [4] is 50 to 150%.

For the molecule `COc1ncc(C2CCC2)c(C)c1C1(C(=O)NS(=O)(=O)c2cccc3ccc(C)nc23)CC1` [II-44], the concentration for a half-maximal effect (EC50) is, setting by setting: under setting [1], below 3 µM; under setting [3], below 3 µM. Also, the “Maximum % activity (with co-corrector)” value under setting [2] is “+++ (≥350)”. Further, the Emax under setting [4] was above 150%.

As to `COc1cccc(C)c1C1(C(=O)NS(=O)(=O)c2cccc3ccc(C)nc23)CC1` [II-45], the EC50 is, setting by setting: under setting [1], 3 to 10 µM; under setting [3], below 3 µM. Further, the “Maximum % activity (with co-corrector)” value under setting [2] is given as “+++ (≥350)”. Also, under setting [4], the Emax is above 150%.

In the case of `COc1ccc(C2CCC2)c(C2(C(=O)NS(=O)(=O)c3cccc4ncccc34)CC2)c1` [II-46], the EC50 is, setting by setting: under setting [1], below 3 µM; under setting [3], below 3 µM. In addition, the “Maximum % activity (with co-corrector)” value under setting [2] is “+++ (≥350)”. Moreover, the Emax under setting [4] is above 150%.

As to `COc1ccc(C2CCC2)c(C2(C(=O)NS(=O)(=O)c3cccc4nc(C)ccc34)CC2)c1` [II-47], the EC50 was below 3 µM under setting [1] and below 3 µM under setting [3]. In addition, under setting [2], the “Maximum % activity (with co-corrector)” value was “+++ (≥350)”. Moreover, the Emax under setting [4] is above 150%.

With `COc1ccc(CO)cc1C1(C(=O)NS(=O)(=O)c2cccc3ncccc23)CC1` [II-48], the EC50 is above 10 µM under setting [1] and 3 to 10 µM under setting [3]. Further, the “Maximum % activity (with co-corrector)” value under setting [2] was “++ (≥150 and <350)”. Besides, under setting [4], the Emax was below 50%.

Consider `COCc1ccc(OC)c(C2(C(=O)NS(=O)(=O)c3cccc4ncccc34)CC2)c1` [II-49], for which the EC50 reads like this: under setting [1], below 3 µM; under setting [3], below 3 µM. For the same molecule, the “Maximum % activity (with co-corrector)” value under setting [2] is recorded as “+++ (≥350)”. For the same molecule, the Emax under setting [4] was above 150%.

As to `COc1cccc(C)c1C1(C(=O)NS(=O)(=O)c2cccc3nc(C)ccc23)CC1` [II-50], the EC50 reads like this: under setting [1], 3 to 10 µM; under setting [3], below 3 µM. Also, the “Maximum % activity (with co-corrector)” value under setting [2] is “+++ (≥350)”. Also, the Emax under setting [4] is above 150%.
